Results reported in ChEMBL document CHEMBL4346757, “Synthesis and biological evaluation of 7-methoxy-1-(3,4,5-trimethoxyphenyl)-4,5-dihydro-2H-benzo[e]indazoles as new colchicine site inhibitors” (Bioorg Med Chem Lett, 2019).
pIC50: −log10 of the molar value.

What was measured:
EKVX [1] = experiment: Growth inhibition of human EKVX cells assessed as cell growth at 0.01 uM after 48 hrs by SRB assay relative to control; type: functional; details: read-out: Activity
SNB-19 = experiment: Growth inhibition of human SNB19 cells assessed as cell growth at 0.01 uM after 48 hrs by SRB assay relative to control; type: functional; details: SNB-19, 48 h, read-out: Activity
COLO 205 = experiment: Growth inhibition of human COLO205 cells assessed as cell growth at 0.01 uM after 48 hrs by SRB assay relative to control; type: functional; details: COLO 205, 48 h, read-out: Activity
SR = experiment: Growth inhibition of human SR cells assessed as cell growth at 100 uM after 48 hrs by SRB assay relative to control; type: functional; details: read-out: Activity
M14 [2] = experiment: Growth inhibition of human M14 cells assessed as cell growth at 100 uM after 48 hrs by SRB assay relative to control; type: functional; details: M14, 48 h, read-out: Activity
SK-MEL-2 = experiment: Growth inhibition of human SK-MEL-2 cells assessed as cell growth at 1 uM after 48 hrs by SRB assay relative to control; type: functional; details: SK-MEL-2, 48 h, read-out: Activity
M14 [3] = experiment: Growth inhibition of human M14 cells assessed as cell growth at 0.1 uM after 48 hrs by SRB assay relative to control; type: functional; details: M14, 48 h, read-out: Activity
NCI-H23 = experiment: Growth inhibition of human NCI-H23 cells assessed as cell growth at 100 uM after 48 hrs by SRB assay relative to control; type: functional; details: NCI-H23, 48 h, read-out: Activity
U-251 = experiment: Growth inhibition of human U251 cells assessed as cell growth at 1 uM after 48 hrs by SRB assay relative to control; type: functional; details: U-251, 48 h, read-out: Activity
SK-MEL-5 = experiment: Growth inhibition of human SK-MEL-5 cells assessed as cell growth at 100 uM after 48 hrs by SRB assay relative to control; type: functional; details: SK-MEL-5, 48 h, read-out: Activity
NCI-H522 = experiment: Growth inhibition of human NCI-H522 cells assessed as cell growth at 1 uM after 48 hrs by SRB assay relative to control; type: functional; details: NCI-H522, 48 h, read-out: Activity
UO-31 [4] = experiment: Cytotoxicity against human UO31 cells assessed as growth inhibition after 48 hrs by SRB assay; type: functional; details: UO-31, 48 h
OVCAR-3 = experiment: Growth inhibition of human OVCAR3 cells assessed as cell growth at 100 uM after 48 hrs by SRB assay relative to control; type: functional; details: OVCAR-3, 48 h, read-out: Activity
M14 [5] = experiment: Growth inhibition of human M14 cells assessed as cell growth at 10 uM after 48 hrs by SRB assay relative to control; type: functional; details: M14, 48 h, read-out: Activity
HCT-116 [6] = experiment: Antiproliferative activity against human HCT116 cells assessed as reduction in cell viability by MTT assay; type: functional, cell-based
SF-268 [7] = experiment: Growth inhibition of human SF268 cells assessed as cell growth at 10 uM after 48 hrs by SRB assay relative to control; type: functional; details: SF-268, 48 h, read-out: Activity
UO-31 [8] = experiment: Growth inhibition of human UO31 cells assessed as cell growth at 1 uM after 48 hrs by SRB assay relative to control; type: functional; details: UO-31, 48 h, read-out: Activity
MDA-MB-435 = experiment: Growth inhibition of human MDA-MB-435 cells assessed as cell growth at 100 uM after 48 hrs by SRB assay relative to control; type: functional; details: MDA-MB-435, 48 h, read-out: Activity
HCT-116 [9] = experiment: Growth inhibition of human HCT116 cells assessed as cell growth at 1 uM after 48 hrs by SRB assay relative to control; type: functional; details: HCT-116, 48 h, read-out: Activity
PC-3 = experiment: Growth inhibition of human PC3 cells assessed as cell growth at 1 uM after 48 hrs by SRB assay relative to control; type: functional; details: PC-3, 48 h, read-out: Activity
SN12C [10] = experiment: Growth inhibition of human SN12C cells assessed as cell growth at 0.01 uM after 48 hrs by SRB assay relative to control; type: functional; details: read-out: Activity
EKVX [11] = experiment: Cytotoxicity against human EKVX cells assessed as growth inhibition after 48 hrs by SRB assay; type: functional
SF-268 [12] = experiment: Growth inhibition of human SF268 cells assessed as cell growth at 0.01 uM after 48 hrs by SRB assay relative to control; type: functional; details: SF-268, 48 h, read-out: Activity
OVCAR-4 = experiment: Growth inhibition of human OVCAR4 cells assessed as cell growth at 10 uM after 48 hrs by SRB assay relative to control; type: functional; details: OVCAR-4, 48 h, read-out: Activity
SN12C [13] = experiment: Growth inhibition of human SN12C cells assessed as cell growth at 0.1 uM after 48 hrs by SRB assay relative to control; type: functional; details: read-out: Activity
BT-549 = experiment: Growth inhibition of human BT549 cells assessed as cell growth at 1 uM after 48 hrs by SRB assay relative to control; type: functional; details: BT-549, 48 h, read-out: Activity
UO-31 [14] = experiment: Growth inhibition of human UO31 cells assessed as cell growth at 10 uM after 48 hrs by SRB assay relative to control; type: functional; details: UO-31, 48 h, read-out: Activity
HCT-15 = experiment: Growth inhibition of human HCT15 cells assessed as cell growth at 100 uM after 48 hrs by SRB assay relative to control; type: functional; details: HCT-15, 48 h, read-out: Activity
MDA-MB-468 = experiment: Growth inhibition of human MDA-MB-468 cells assessed as cell growth at 10 uM after 48 hrs by SRB assay relative to control; type: functional; details: MDA-MB-468, 48 h, read-out: Activity
NCI-H322M = experiment: Growth inhibition of human NCI-H322M cells assessed as cell growth at 1 uM after 48 hrs by SRB assay relative to control; type: functional; details: read-out: Activity
HT-29 [15] = experiment: Growth inhibition of human HT-29 cells assessed as cell growth at 0.1 uM after 48 hrs by SRB assay relative to control; type: functional; details: HT-29, 48 h, read-out: Activity
HOP-62 = experiment: Growth inhibition of human HOP62 cells assessed as cell growth at 0.01 uM after 48 hrs by SRB assay relative to control; type: functional; details: HOP-62, 48 h, read-out: Activity
OVCAR-8 = experiment: Growth inhibition of human OVCAR8 cells assessed as cell growth at 100 uM after 48 hrs by SRB assay relative to control; type: functional; details: OVCAR-8, 48 h, read-out: Activity
NCI/ADR-RES = experiment: Growth inhibition of human NCI-ADR-RES cells assessed as cell growth at 0.01 uM after 48 hrs by SRB assay relative to control; type: functional; details: read-out: Activity
HT-29 [16] = experiment: Growth inhibition of human HT-29 cells assessed as cell growth at 100 uM after 48 hrs by SRB assay relative to control; type: functional; details: HT-29, 48 h, read-out: Activity
[17] = read-out: LC50 (the source's name)
[18] = read-out: pLC50 (the source's name) (converted)

Structure (SMILES): COc1ccc2c(c1)CCc1n[nH]c(-c3cc(OC)c(OC)c(OC)c3)c1-2
- growth at 0.01 µM (EKVX [1]): 48%
- growth at 0.01 µM (SNB-19): 33%
- growth at 0.01 µM (COLO 205): -23%
- growth at 100 µM (SR): -15%
- growth at 100 µM (M14 [2]): -66%
- growth at 1 µM (SK-MEL-2): 42%
- growth at 0.1 µM (M14 [3]): 1%
- growth at 100 µM (NCI-H23): -42%
- growth at 1 µM (U-251): 8%
- growth at 100 µM (SK-MEL-5): -97%
- growth at 1 µM (NCI-H522): -16%
- GI50 (UO-31 [4]; read-out: GI50): < 10 nM
- CC50 (UO-31 [4]; [17]): > 100 µM
- TGI (UO-31 [4]; read-out: TGI): 17.3 µM
- GI50 (UO-31 [4]; read-out: pGI50 (converted)): < 10 nM
- CC50 (UO-31 [4]; [18]): > 100 µM
- TGI (UO-31 [4]; read-out: pTGI (converted)): 17.4 µM
- growth at 100 µM (OVCAR-3): -59%
- growth at 10 µM (M14 [5]): 2%
- pIC50 (HCT-116 [6]): 9.00
- growth at 10 µM (SF-268 [7]): 18%
- growth at 1 µM (UO-31 [8]): 28%
- growth at 100 µM (MDA-MB-435): -64%
- growth at 1 µM (HCT-116 [9]): 1%
- growth at 1 µM (PC-3): 18%
- growth at 0.01 µM (SN12C [10]): 39%
- CC50 (EKVX [11]; [17]): > 100 µM
- TGI (EKVX [11]; read-out: TGI): 39 µM
- CC50 (EKVX [11]; [18]): > 100 µM
- TGI (EKVX [11]; read-out: pTGI (converted)): 38.9 µM
- growth at 0.01 µM (SF-268 [12]): 39%
- growth at 10 µM (OVCAR-4): 35%
- growth at 0.1 µM (SN12C [13]): 35%
- growth at 1 µM (BT-549): 3%
- growth at 10 µM (UO-31 [14]): 13%
- growth at 100 µM (HCT-15): -41%
- growth at 10 µM (MDA-MB-468): -5%
- growth at 1 µM (NCI-H322M): 42%
- growth at 0.1 µM (HT-29 [15]): 2%
- growth at 0.01 µM (HOP-62): 11%
- growth at 100 µM (OVCAR-8): -38%
- growth at 0.01 µM (NCI/ADR-RES): -13%
- growth at 100 µM (HT-29 [16]): -72%
